# ChEMBL document CHEMBL1158269, “Ehretianone, a novel quinonoid xanthene from Ehretia buxifolia with antisnake venom activity” (J Nat Prod, 1996)
# Tests used:
# [1] = Curative activity against Echis carinatus venom assessed as mortality at 3.75 mg/kg, sc administered 45 mins after injection of venom to Swiss albino mouse measured within 24 hrs; type: functional; conditions: route subcutaneous
# [2] = Curative activity against Echis carinatus venom assessed as mortality at 3.75 mg/kg, sc administered 30 mins after injection of venom to Swiss albino mouse measured within 24 hrs; type: functional; conditions: route subcutaneous
# [3] = Antisnake venom activity against Echis carinatus venom assessed as mortality at 3.75 mg/kg preincubated for 30 mins with venom LD50 before subcutaneous administration to Swiss albino mouse measured within 24 hrs; type: functional
# [4] = test system: Mus musculus; assay: Toxicity in Swiss albino mouse up to 100 mg/kg, sc; type: organism-based; parameters: dose 100 mg/kg, route subcutaneous; conditions: in vivo
# [5] = Prophylactic activity against Echis carinatus venom assessed as mortality at 3.75 mg/kg, sc administered 30 mins before injection of venom to Swiss albino mouse measured within 24 hrs; type: functional; conditions: route subcutaneous
# [6] = Antisnake venom activity against Echis carinatus venom assessed as mortality at 1.25 mg/kg preincubated for 30 mins with venom LD50 before subcutaneous administration to Swiss albino mouse measured within 24 hrs; type: functional
# [7] = Antisnake venom activity against Echis carinatus venom assessed as mortality at 2.50 mg/kg preincubated for 30 mins with venom LD50 before subcutaneous administration to Swiss albino mouse measured within 24 hrs; type: functional; conditions: dose 2.5 mg/kg
# [8] = Curative activity against Echis carinatus venom assessed as mortality at 3.75 mg/kg, sc administered 5 mins after injection of venom to Swiss albino mouse measured within 24 hrs; type: functional; conditions: route subcutaneous
smiles,measurement,setting,value
CC(C)=CC[C@]12C(=O)C=CC(=O)[C@]13CC(C)=C[C@H]2c1cc(O)ccc1O3 [EHRETIANONE],Activity,[1],45%
same,Activity,[2],38.3%
same,Activity,[3],13.3%
same,Activity,[4],Non-toxic
same,Activity,[5],16.7%
same,Activity,[6],43.3%
same,Activity,[7],26.7%
same,Activity,[8],21.7%
